The subject of data set [1] is Immortalized Human Gingival Fibroblasts-hTERT (iHGF). Nature of the data set: Total collagen deposition (Sirius red staining) after UVA irradiation. Conditions: 7 days after irradiation and treatment. It counts as cell-based. As to the method:
Collagen deposition was determined according to Walsh et al 1992. […] Collagen was stained with Sirius red F3BA 0.1% in saturated picric acid for 1 hour. Unbound dye was removed by washing with 10 mM HCl, and dye was solubilized with 100 mM NaOH. Absorbance was measured with a microplate reader at 540 nm. Non-treated cells were set as 100%.

Data set [2] has the same test system. In words: Metabolic activity (PrestoBlue cell viability) after UVA irradiation. Conditions: 24 h after irradiation and after 7 days of culture and treatment.
Description: Immortalized Human Gingival Fibroblasts-hTERT (iHGF) (Applied Biological Materials Inc) were used for the experiments. Cells were grown at 37 °C in an atmosphere of 5% CO2 using complete fibroblast cell culture medium that consists in Dulbecco's modified Eagle's medium (DMEM) low glucose (Biowest)/Ham's F12 (3/1) (Biowest), supplemented with 10% (v/v) fetal bovine serum embryonic stem cells tested (FBS) (Biowest), 100 g/mL penicillin and 100 g/mL streptomycin (Biowest).
iHGF were seeded (7 000 cells/well) in 96-well plates (white and transparent tissue culture test-plates) and at confluence, cells were treated with different concentrations (0.1; 1; 10; 50; 75 and 100 µM) of Pteroyouth®, pterostilbene or silybin in complete fibroblast cell culture medium as described above. […] To measure cell viability, cell culture media and treatments were added again to the cells and metabolic activity was measured 24 h after irradiation. […] Cell viability was determined again at day 7, and cell monolayer was used to quantify collagen deposition. […]
Total metabolic activity was evaluated using the PrestoBlue™ Cell Viability Reagent (Invitrogen, Catalog Number A13261; Life Technologies, Carlsbad, CA, USA), which is used to measure the metabolic activity of cells, being an indicator of their overall health and functionality. […]

Regarding `COc1cc(C2Oc3cc([C@H]4Oc5cc(O)cc(O)c5C(=O)[C@@H]4O)ccc3OC2CO)ccc1O` (stereo partly drawn) [silybin], the “total collagen deposition compared to both C and CuVA” value in data set [1] (0.1 µM), in data set [1] (1 µM) and in data set [1] (10 µM) was “higher collagen deposition” throughout.
As for `COc1cc(/C=C/c2ccc(O)cc2)cc(OC)c1` [pterostilbene, trans-3,5-dimethoxy-4-hydroxystilbene], the “metabolic activity (cell viability)” value in data set [2] (0.1 µM) and in data set [2] (1 µM) was “maintain cell viability” each time. Also, the “total collagen deposition compared to both C and CuVA” value in data set [1] (1 µM) is “higher collagen deposition”.

These data come from patent publication EP4541351A1, “COMPOUNDS AND COMBINATION AS STIMULATORS OF COLLAGEN SYNTHESIS” (Center for Intelligent Research in Crystal Engineering, S.L., priority 2023, dated 2025).
